Laboratory results as given in article PMC11871066, “Structure-based discovery of hydrocarbon-stapled paxillin peptides that block FAK scaffolding in cancer” (Nature Communications, 2025).
Read-outs that look alike come from different tables or passages of the source. Values belong to the compound of their own block, whether it stands above or below them. Bridge positions count the residues as written; N and C are the ends. Square brackets hold non-standard residues; d marks the D form. Peptide text beside a SMILES is read from it. R8 = C=CCCCCCC[C@@](C)(N)C(=O)O; R5 = C=CCCC[C@@](C)(N)C(=O)O; S5 = C=CCCC[C@](C)(N)C(=O)O

Key:
FAK FAT domain = target: T1, FAK FAT domain (Homo sapiens, UniProt Q05397); test: SPR binding to immobilized biotinylated FAK FAT
T1 sequence (Q05397 914-1045 limits assumed): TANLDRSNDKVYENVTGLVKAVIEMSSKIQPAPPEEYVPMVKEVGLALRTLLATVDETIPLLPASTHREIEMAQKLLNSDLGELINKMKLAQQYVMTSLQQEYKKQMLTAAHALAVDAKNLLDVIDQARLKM
Description: SPR binding studies were performed using biotinylated FAK FAT protein[51]. Briefly, SPR binding assays were performed on a ForteBio Pioneer FE SPR system using SPR running buffer (100 mM Tris-Cl pH 8.0, 200 mM NaCl, and 0.05% Tween-20). […] Desired immobilization levels were determined utilizing the following Eq. 1:1 Rmax=RproteinxMranalyte/MrproteinxVprotein where Rmax is the highest possible response of binding between the analyte and the protein, Rprotein is the change in response by the immobilization of the protein, Mr represents the mass of the analyte or protein, and Vprotein represents the number of binding sites on the protein. A target Rmax of approximately 100 RU was chosen.
All samples were diluted in the SPR buffer to a volume of 200 µl and injected using the OneStep gradient injection system at a flow rate of 150 µl/min. For a bulk standard control, a 3% (w\v) solution of sucrose in SPR buffer was used for injection. […] SPR data analysis utilized Qdat software (ForteBio, version 4.3.2 build 8) for normalization of the baseline prior to injection, channel alignment, and reference channel and blank subtraction.

[1] = target: T2, FAK FAT / TAMRA-paxillin LD2 L10D (Homo sapiens, UniProt Q05397); test: Fluorescence polarization competition (FAK-paxillin) assay; type: binding
T2 construct: assay was performed using FAK FAT protein and TAMRA-LD2 L10D peptide
T2 sequence (Q05397 919-1052): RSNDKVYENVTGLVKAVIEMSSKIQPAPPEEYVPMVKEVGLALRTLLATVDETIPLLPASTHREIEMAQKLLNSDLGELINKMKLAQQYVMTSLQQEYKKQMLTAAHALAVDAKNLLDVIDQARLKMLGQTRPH
Description: The IC50 was calculated using a four-parameter dose-response inhibition model, with the bottom fit constrained to the lower plateau of the binding curve.

trypsin = test: Trypsin proteolytic resistance assay; details: immobilized trypsin-agarose resin
Description: Cell permeability of peptide drugs was determined by fluorescence measurement of TAMRA-labeled peptides in 96-well plates and ClarioStar Plus plate reader using BMG ClarioStar MARS software (version 4.20). […] Percent uptake was calculated as background-subtracted fluorescence absorbed by cells/fluorescence of peptide in media-only wells, then made relative to TAMRA-Alkyne. Three biological replicates (n = 3) were performed per cell line per treatment group. Peptide proteolysis was measured using immobilized Trypsin-agarose resin (Thermo Fisher) and quantification by LC-MS. […] In vivo pharmacokinetics were performed by the UACC Analytical Chemistry Shared Resource. […] The mice were fed NIH-31 irradiated pellets (Tekland Premier, Madison, Wisconsin), and reverse osmosis water was freely available. […] The average plasma concentration versus time data were analyzed using PKSolver (version 2.0) by a noncompartmental approach.

Plasma stability = details: mouse plasma
[2] = one-site kinetic fit, mean ± SD of n = 2-5 biological replicates, Tris pH 8.0, read-out: SPR KD

SMILES: CC(=O)N[C@@H](CC(N)=O)C(=O)N[C@@H](CC(C)C)C(=O)N[C@@H](CO)C(=O)N[C@]1(C)CCCCCCC=CCCC[C@@](C)(C(=O)N[C@@H](CC(C)C)C(=O)N[C@@H](CC(N)=O)C(N)=O)NC(=O)[C@H](CC(C)C)NC(=O)[C@H](CC(C)C)NC(=O)[C@H](CC(C)C)NC(=O)[C@H](CCCNC(=N)N)NC(=O)[C@H](CC(=O)O)NC(=O)[C@H](CC(C)C)NC1=O [compound 1905] (Ac-NLS[R8]LDRLLL[S5]LN-NH2; staple 4-11)
Kd (FAK FAT domain; [2]): 146 µM
Ki ([1]; Rep1, read-out: FP (Ki) data): > 1250 µM
Ki ([1]; Rep2, read-out: FP (Ki) data): > 1250 µM
Ki ([1]; Rep3, read-out: FP (Ki) data): > 1250 µM

SMILES: CC(=O)N[C@@H](CC(N)=O)C(=O)N[C@@H](CC(C)C)C(=O)N[C@]1(C)CCCCCCC=CCCC[C@@](C)(C(=O)N[C@@H](CCC(N)=O)C(=O)N[C@@H](CC(C)C)C(=O)N[C@@H](CC(N)=O)C(N)=O)NC(=O)[C@H](CC(C)C)NC(=O)[C@H](CC(C)C)NC(=O)[C@H](CCCNC(=N)N)NC(=O)[C@H](CC(=O)O)NC(=O)[C@H](CC(C)C)NC(=O)[C@H](CCC(N)=O)NC1=O [compound 1910] (Ac-NL[R8]QLDRLL[S5]QLN-NH2; staple 3-10)
Kd (FAK FAT domain; [2]): 22.6 µM

SMILES: CC(=O)N[C@@H](CO)C(=O)N[C@@H](CC(C)C)C(=O)NCC(=O)N[C@@H](CO)C(=O)N[C@@H](CC(N)=O)C(=O)N[C@@H](CC(C)C)C(=O)N[C@]1(C)CCCCCCC=CCCC[C@@](C)(C(=O)N[C@@H](CCC(=O)O)C(=O)N[C@@H](CC(C)C)C(=O)N[C@@H](CC(N)=O)C(=O)N[C@@H](C)C(=O)N[C@H](C(=O)N[C@@H](CCC(N)=O)C(=O)N[C@@H](Cc2c[nH]cn2)C(N)=O)C(C)C)NC(=O)[C@H](CC(C)C)NC(=O)[C@H](CC(C)C)NC(=O)[C@H](CCCNC(=N)N)NC(=O)[C@H](CC(=O)O)NC(=O)[C@H](CC(C)C)NC(=O)[C@H](CCC(=O)O)NC1=O [compound 1920] (Ac-SLGSNL[R8]ELDRLL[S5]ELNAVQH-NH2; staple 7-14)
Kd (FAK FAT domain; two-site model, site 1, mean ± SD, read-out: SPR KD1): 0.9 ± 0.5 µM
Kd (FAK FAT domain; two-site model, site 2, mean ± SD, read-out: SPR KD2): 9.8 ± 6.9 µM

SMILES: CC(=O)N[C@]1(C)CCCCCCC=CCCC[C@@](C)(C(N)=O)NC(=O)[C@H](CC(C)C)NC(=O)[C@H](CC(C)C)NC(=O)[C@H](CCCNC(=N)N)NC(=O)[C@H](CC(=O)O)NC(=O)[C@H](CC(C)C)NC(=O)[C@H](CCC(=O)O)NC1=O [compound 2011] (Ac-[R8]ELDRLL[S5]-NH2; staple 1-8)
Kd (FAK FAT domain; Rep1, read-out: SPR (KD)): > 200 µM
Kd (FAK FAT domain; Rep2, read-out: SPR (KD)): > 200 µM
Kd (FAK FAT domain; Rep3, read-out: SPR (KD)): > 200 µM
Kd (FAK FAT domain; read-out: SPR KD, pH 8): > 200 µM
Ki [1]: > 333 µM
Ki ([1]; Rep2, read-out: FP (Ki) data): > 333 µM

SMILES: CC(=O)N[C@@H](CC(N)=O)C(=O)N[C@@H](CC(C)C)C(=O)N[C@@H](CO)C(=O)N[C@@H](CCC(=O)O)C(=O)N[C@@H](CC(C)C)C(=O)N[C@@H](CC(=O)O)C(=O)N[C@@H](CCCNC(=N)N)C(=O)N[C@@]1(C)CCCC=CCCC[C@@](C)(C(=O)N[C@@H](CC(N)=O)C(N)=O)NC(=O)[C@H](CCC(=O)O)NC(=O)[C@H](CC(C)C)NC(=O)[C@H](CC(C)C)NC1=O [compound 2015] (Ac-NLSELDR[S5]LLE[S5]N-NH2; staple 8-12)
Kd (FAK FAT domain): 30.6 µM

SMILES: CC(=O)N[C@@H](CC(N)=O)C(=O)N[C@]1(C)CCCCCCC=CCCC[C@@](C)(C(=O)N[C@@H](CC(C)C)C(=O)N[C@@H](CCC(=O)O)C(=O)N[C@@H](CC(C)C)C(=O)N[C@@H](CC(N)=O)C(N)=O)NC(=O)[C@H](CC(C)C)NC(=O)[C@H](CCCNC(=N)N)NC(=O)[C@H](CC(=O)O)NC(=O)[C@H](CC(C)C)NC(=O)[C@H](CCC(=O)O)NC(=O)[C@H](CO)NC1=O [compound 2017] (Ac-N[R8]SELDRL[S5]LELN-NH2; staple 2-9)
Kd (FAK FAT domain; [2]): 27.9 µM

SMILES: CC(C)[N+](C)(CCOC(=O)C1c2ccccc2Oc2ccccc21)C(C)C [propantheline bromide]
% remaining in plasma (Plasma stability; 0 min, Rep1): 105%
% remaining in plasma (Plasma stability; 0 min, Rep2): 100%
% remaining in plasma (Plasma stability; 0 min, Rep3): 95%
% remaining in plasma (Plasma stability; 15 min, Rep1): 85%
% remaining in plasma (Plasma stability; 15 min, Rep2): 78%
% remaining in plasma (Plasma stability; 15 min, Rep3): 86%
% remaining in plasma (Plasma stability; 30 min, Rep1): 73%
% remaining in plasma (Plasma stability; 30 min, Rep2): 70%
% remaining in plasma (Plasma stability; 30 min, Rep3): 68%
% remaining in plasma (Plasma stability; 60 min, Rep1): 58%
% remaining in plasma (Plasma stability; 60 min, Rep2): 52%
% remaining in plasma (Plasma stability; 60 min, Rep3): 50%
% remaining in plasma (Plasma stability; 90 min, Rep1): 30%
% remaining in plasma (Plasma stability; 90 min, Rep2): 42%
% remaining in plasma (Plasma stability; 90 min, Rep3): 36%
% remaining in plasma (Plasma stability; 120 min, Rep1): 29%
% remaining in plasma (Plasma stability; 120 min, Rep2): 31%
% remaining in plasma (Plasma stability; 120 min, Rep3): 27%
plasma stability t1/2 (Plasma stability; n = 3): 1.1 h

More lines, main results first:

half-life at 100 µM (trypsin): 28.4 h
remaining at 0.25 h, 100 µM (trypsin): 80%
remaining at 0.5 h, 100 µM (trypsin): 73%
remaining at 1 h, 100 µM (trypsin): 72%
remaining at 2 h, 100 µM (trypsin): 73%
remaining at 3 h, 100 µM (trypsin): 62%
remaining at 4 h, 100 µM (trypsin): 58%
remaining at 8 h, 100 µM (trypsin): 56%
remaining at 24 h, 100 µM (trypsin): 43%
remaining at 48 h, 100 µM (trypsin): 31%
SMILES: CC(=O)N[C@@H](CC(N)=O)C(=O)N[C@@H](CC(C)C)C(=O)N[C@]1(C)CCCCCCC=CCCC[C@@](C)(C(=O)N[C@@H](CCC(=O)O)C(=O)N[C@@H](CC(C)C)C(=O)N[C@@H](CC(N)=O)C(N)=O)NC(=O)[C@H](CC(C)C)NC(=O)[C@H](CC(C)C)NC(=O)[C@H](CCCNC(=N)N)NC(=O)[C@H](CC(=O)O)NC(=O)[C@H](CC(C)C)NC(=O)[C@H](CCC(=O)O)NC1=O [compound 1907]

Kd (FAK FAT domain; [2]): 120 µM
SMILES: CC(=O)N[C@@H](CC(N)=O)C(=O)N[C@@H](CC(C)C)C(=O)N[C@@H](CO)C(=O)N[C@@H](CCC(=O)O)C(=O)N[C@]1(C)CCCCCCC=CCCC[C@@](C)(C(=O)N[C@@H](CC(N)=O)C(N)=O)NC(=O)[C@H](CCC(=O)O)NC(=O)[C@H](CC(C)C)NC(=O)[C@H](CC(C)C)NC(=O)[C@H](CC(C)C)NC(=O)[C@H](CCCNC(=N)N)NC(=O)[C@H](CC(=O)O)NC1=O [compound 1914] (Ac-NLSE[R8]DRLLLE[S5]N-NH2; staple 5-12)
Ki ([1]; Rep1, read-out: FP (Ki) data): > 1250 µM
Ki ([1]; Rep2, read-out: FP (Ki) data): > 1250 µM
Ki ([1]; Rep3, read-out: FP (Ki) data): > 1250 µM

Kd (FAK FAT domain; [2]): 80.6 µM
SMILES: CC(=O)N[C@@H](CC(N)=O)C(=O)N[C@@H](CC(C)C)C(=O)N[C@@H](CO)C(=O)N[C@@H](CCC(=O)O)C(=O)N[C@@]1(C)CCCC=CCCC[C@@](C)(C(=O)N[C@@H](CC(C)C)C(=O)N[C@@H](CCC(=O)O)C(=O)N[C@@H](CC(C)C)C(=O)N[C@@H](CC(N)=O)C(N)=O)NC(=O)[C@H](CC(C)C)NC(=O)[C@H](CCCNC(=N)N)NC(=O)[C@H](CC(=O)O)NC1=O [compound 1919] (Ac-NLSE[S5]DRL[S5]LELN-NH2; staple 5-9)

Kd (FAK FAT domain; Rep1, read-out: SPR (KD)): > 200 µM
Kd (FAK FAT domain; Rep2, read-out: SPR (KD)): > 200 µM
Kd (FAK FAT domain; Rep3, read-out: SPR (KD)): > 200 µM
Kd (FAK FAT domain; [2]): > 200 µM
SMILES: CC(=O)N[C@@H](CC(N)=O)C(=O)N[C@@H](CC(C)C)C(=O)N[C@@H](CO)C(=O)N[C@@H](CCC(=O)O)C(=O)N[C@@H](CC(C)C)C(=O)N[C@@H](CC(=O)O)C(=O)N[C@@H](CCCNC(=N)N)C(=O)N[C@@H](CC(C)C)C(=O)N[C@]1(C)CCCC=CCCC[C@@](C)(C(=O)N[C@@H](CC(N)=O)C(N)=O)NC(=O)[C@H](CCC(=O)O)NC(=O)[C@H](CC(C)C)NC1=O [compound 1921] (Ac-NLSELDRL[R5]LE[S5]N-NH2; staple 9-12)

Kd (FAK FAT domain; [2]): 60.6 µM
SMILES: CC(=O)N[C@@H](CC(N)=O)C(=O)N[C@@H](CC(C)C)C(=O)N[C@]1(C)CCCCCCC=CCCC[C@@](C)(C(=O)N[C@@H](CCC(=O)O)C(=O)N[C@@H](CC(C)C)C(=O)N[C@@H](CC(N)=O)C(N)=O)NC(=O)[C@H](Cc2c[nH]c3ccccc23)NC(=O)[C@H](CC(C)C)NC(=O)[C@H](CCCNC(=N)N)NC(=O)[C@H](CC(=O)O)NC(=O)[C@H](CC(C)C)NC(=O)[C@H](CCC(=O)O)NC1=O [compound 2007]

Kd (FAK FAT domain; [2]): 3.4 µM
SMILES: CC(=O)N[C@@H](CC(N)=O)C(=O)N[C@@H](CC(C)C)C(=O)N[C@]1(C)CCCCCCC=CCCC[C@@](C)(C(=O)N[C@@H](CCC(=O)O)C(=O)N[C@@H](CC(C)C)C(=O)N[C@@H](CC(N)=O)C(N)=O)NC(=O)[C@H](CC(C)C)NC(=O)[C@H](CC(C)C)NC(=O)[C@H](CCCNC(=N)N)NC(=O)[C@H](CC(=O)O)NC(=O)[C@H](CC(C)C)NC(=O)[C@H](C)NC1=O [compound 2009]
